Earlier results, collected in US20220313611A1, “METHODS TO PREPARE DRY POWDERS USING SUSPENSION BASED THIN FILM FREEZING” (BOARD OF REGENTS, THE UNIVERSITY OF TEXAS SYSTEM, priority 2021, published 2022).

solubility in water: practically insoluble in water
Compound: C=CC[C@@H]1/C=C(\C)C[C@H](C)C[C@H](OC)[C@H]2O[C@@](O)(C(=O)C(=O)N3CCCC[C@H]3C(=O)O[C@H](/C(C)=C/[C@@H]3CC[C@@H](O)[C@H](OC)C3)[C@H](C)[C@@H](O)CC1=O)[C@H](C)C[C@@H]2OC [TAC, Tacrolimus]
